Patent US20160038518A1, “METHODS FOR TREATING PSORIASIS AND VASCULAR INFLAMMATION” (VASCULAR BIOGENICS LTD., priority 2012, published 2016)
Values joined by “and” are separate entries in the source; they are usually repeats but may differ in a detail not shown here. Identical values can stand only once. Like-named read-outs stand apart in the source and are kept apart here.

Experiments:
[1] = test system: patients with moderate to severe plaque psoriasis; assay: safety evaluation in the Phase II clinical study; format: in vivo, human
Protocol: (§1) The efficacy analyses were performed on the data from a modified intention-to-treat (MITT) population (defined as all patients randomized who received at least one dose of medication and had at least one efficacy evaluation). The safety analyses were performed on all randomized patients who received at least one dose of the drug.

[2] = test system: moderate to severe plaque psoriasis; assay: randomized, double-blind Phase II clinical study in plaque psoriasis (PGA, PtGA, PASI); format: in vivo, human; conditions: for average reduction of PASI score: 12 weeks
Protocol: Patients were screened for eligibility and, up to 28 days later, at the baseline visit, randomized to one of three treatment groups (1:1:1): VB-201 20 mg/day: VB-201 80 mg/day: placebo/day. Patients consumed 2 capsules per day (VB-201 20 mg+placebo, VB-201 40 mg+40 mg, or 2× placebo). To ensure that the treatment assignments were concealed, all patients received 2 matching capsules of VB-201 or placebo.
as §1
A randomized, double-blind Phase II clinical study was performed in subjects with moderate to severe plaque psoriasis, in order to determine the efficacy of VB-201 in treating this condition. […] Patients underwent a wash-out period following any previous treatments. After screening and establishment of a baseline, eligible subjects were randomly assigned to receive 20 mg per day VB-201, 80 mg per day VB-201 or a daily placebo, for a period of 12 weeks.
Doses were administered orally at breakfast time with food. The maximal dose of VB-201 (80 mg/day) was determined according to earlier tolerability results (see, e.g., Example 4 of WO2011/083465).
Efficacy of each dosage level of VB-201 relative to placebo was determined according to the percentage of patients which achieved at least a 50% or 75% improvement over baseline PASI score at week 12.
Statistical comparisons were performed using a two-sided comparison with a 5% level of significance. All analyses were performed using Statistical Analysis Software (SAS®) Version 9.2.
Categorical analyses of Physician's Global Assessment and Patient's Psoriasis Global Assessment scores at Baseline, Week 8 and Week 12 were analyzed.
The Physician's Global Assessment (PGA) score was based on a 5-point scale with possible outcomes 0=clear, 1=almost clear, 2=mild, 3=moderate and 4=severe.
The Patient's Psoriasis Global Assessment (PtGA) score was based on a 6-point scale with possible outcomes 0=clear, 1=almost clear, 2=mild, 3=moderate, and 4 severe and 5=worst psoriasis has ever been.
The analyses that follow use the categorical nature of the PGA and PtGA, i.e. the 5-point or 6-point ordered scale which was considered more relevant than a continuous approach.
The proportion of patients with baseline, week 8 and week 12 PGA scores 0-3 vs. 4 (Clear or Almost Clear or Mild or Moderate vs. Severe) and PtGA scores of 0-2 vs. 3-5 (Clear or Almost Clear or Mild vs. Moderate or Severe or Worse).
Pairwise comparisons between placebo and each active dose group was made using Fisher's exact tests at the 5% level of significance.

[3] = test system: inflammation associated with the breast implants; assay: 18-FDG PET/CT of a patient with breast implants; format: in vivo, human; conditions: one patient, 20 mg/day, 12 weeks, FIG. 6
Protocol: A patient with breast implants was treated with VD-201 at 20 mg/day for 12 weeks. PET-CT scans were done at baseline and at 12 weeks, using positron emission computed tomography (PET/CT) imaging quantifying 18-fluorodeoxyglucose (18-FDG) uptake as a TBR as described in Example 1.

[4] = Protocol: Additional criteria included change in affected body surface area from baseline to week 12, change in PGA score from baseline to week 12, any change relative to baseline PASI score, and change in Patient Psoriasis Global Assessment (PtGA) score from baseline to week 12. Blood samples were taken at weeks 4, 8 and 12, in order to assess VB-201 pharmacokinetics, as well as plasma cytokine levels. Safety of VB-201 administration was evaluated by physical examination, incidence of adverse effects, vital signs, clinical chemistry, hematology, urinalysis and electrocardiograms.
human CD 14+ monocytes = conditions: VB-201 5 μg/ml prior to chemotaxis assay; MCP-1 (50 ng/ml), MIP-1a (50 ng/ml) or RANTES (100 ng/ml); FIG. 1A

CCCCCCCCCCCCCCCCOC[C@H](COP(=O)([O-])OCC[N+](C)(C)C)OCCCCC(=O)O [VB-201, 1-hexadecyl-2-(4′-carboxy)butyl-sn-glycero-3-phosphocholine]
severity of diarrhea cases ([1]; 80 mg/day): mild (Grade 1) and transient | diarrhea rate ([1]; 80 mg/day (placebo 6.8%)): 15.3% | safety and tolerability ([1]; PET-CT sub-study, 20 or 80 mg/day, 12 weeks): safe and well tolerated | tolerability ([1]; doses of 20 mg/day and 80 mg/day): well tolerated | overall rate of Serious Adverse Events ([1]; main study, 2 subjects): 1.6% | deaths on therapy ([1]; main study, 12 weeks): No deaths occurred on therapy | related Serious Adverse Events ([1]; main study, 12 weeks): No related Serious Adverse Events were observed | overall rate of discontinuation due to Adverse Events ([1]; on VB-201, 4 subjects): 3.2% | PGA decrease from baseline to week 12 versus placebo ([2]; 20 mg): statistically superior to that with placebo | PGA odds ratio, ordered logistic regression under the proportional odds model ([2]; 20 mg and 80 mg groups combined vs placebo, p=0.049, CI=1.00-3.65): 1.91 | Patient Global Assessment decrease from baseline to week 12 versus placebo ([2]; 20 mg, p=0.12): trend for efficacy | PGA 0-3 (No/Almost Clear/Mild/Mod), % of patients ([2]; 20 mg/day, Baseline): 83.87% | PGA 0-3 (No/Almost Clear/Mild/Mod), Freq. ([2]; 20 mg/day, Baseline): 52 | PGA 4 (Severe), % of patients ([2]; 20 mg/day, Baseline): 16.13% | PGA 4 (Severe), Freq. ([2]; 20 mg/day, Baseline): 10 | PtGA 0-2 (No/Almost Clear/Mild), % of patients ([2]; 20 mg/day, Baseline): 11.29% | PtGA 0-2 (No/Almost Clear/Mild), Freq. ([2]; 20 mg/day, Baseline): 7 | PtGA 3-5 (Mod/Severs/Worse), % of patients ([2]; 20 mg/day, Baseline): 88.71% | PtGA 3-5 (Mod/Severs/Worse), Freq. ([2]; 20 mg/day, Baseline): 55 | PGA 0-3 (No/Almost Clear/Mild/Mod), % of patients ([2]; 20 mg/day, Week 8): 96.8% | PGA 0-3 (No/Almost Clear/Mild/Mod), Freq. ([2]; 20 mg/day, Week 8): 60 | PGA 4 (Severe), % of patients ([2]; 20 mg/day, Week 8): 3.2% and 3.23% | PGA 4 (Severe), Freq. ([2]; 20 mg/day, Week 8): 2 | PtGA 0-2 (No/Almost Clear/Mild), % of patients ([2]; 20 mg/day, Week 8): 32.26% | PtGA 0-2 (No/Almost Clear/Mild), Freq. ([2]; 20 mg/day, Week 8): 20 | PtGA 3-5 (Mod/Severs/Worse), % of patients ([2]; 20 mg/day, Week 8): 67.74% | PtGA 3-5 (Mod/Severs/Worse), Freq. ([2]; 20 mg/day, Week 8): 42 | PGA 0-3 (No/Almost Clear/Mild/Mod), % of patients ([2]; 20 mg/day, Week 12/EOT): 95.16% | PGA 0-3 (No/Almost Clear/Mild/Mod), Freq. ([2]; 20 mg/day, Week 12/EOT): 59 | PGA 4 (Severe), % of patients ([2]; 20 mg/day, Week 12/EOT): 4.8% and 4.84% | PGA 4 (Severe), Freq. ([2]; 20 mg/day, Week 12/EOT): 3 | PtGA 0-2 (No/Almost Clear/Mild), % of patients ([2]; 20 mg/day, Week 12/EOT): 30.65% | PtGA 0-2 (No/Almost Clear/Mild), Freq. ([2]; 20 mg/day, Week 12/EOT): 19 | PtGA 3-5 (Mod/Severs/Worse), % of patients ([2]; 20 mg/day, Week 12/EOT): 69.35% | PtGA 3-5 (Mod/Severs/Worse), Freq. ([2]; 20 mg/day, Week 12/EOT): 43 | PGA decrease from baseline to week 12 versus placebo ([2]; 80 mg): trend for efficacy | Patient Global Assessment odds ratio, ordered logistic regression under the proportional odds model ([2]; 80 mg vs. placebo, p=0.047, CI=1.01-3.80): 1.96 | Patient Global Assessment decrease from baseline to week 12 versus placebo ([2]; 80 mg, p=0.02): statistically superior to that with placebo | PGA 0-3 (No/Almost Clear/Mild/Mod), % of patients ([2]; 80 mg/day, Baseline): 79.31% | PGA 0-3 (No/Almost Clear/Mild/Mod), Freq. ([2]; 80 mg/day, Baseline): 46 | PGA 4 (Severe), % of patients ([2]; 80 mg/day, Baseline): 20.69% | PGA 4 (Severe), Freq. ([2]; 80 mg/day, Baseline): 12 | PtGA 0-2 (No/Almost Clear/Mild), % of patients ([2]; 80 mg/day, Baseline): 11.86% | PtGA 0-2 (No/Almost Clear/Mild), Freq. ([2]; 80 mg/day, Baseline): 7 | PtGA 3-5 (Mod/Severs/Worse), % of patients ([2]; 80 mg/day, Baseline): 88.14% | PtGA 3-5 (Mod/Severs/Worse), Freq. ([2]; 80 mg/day, Baseline): 52 | PGA 0-3 (No/Almost Clear/Mild/Mod), % of patients ([2]; 80 mg/day, Week 8): 91.53% | PGA 0-3 (No/Almost Clear/Mild/Mod), Freq. ([2]; 80 mg/day, Week 8): 54 | PGA 4 (Severe), % of patients ([2]; 80 mg/day, Week 8): 8.5% and 8.47% | PGA 4 (Severe), Freq. ([2]; 80 mg/day, Week 8): 5 | PtGA 0-2 (No/Almost Clear/Mild), % of patients ([2]; 80 mg/day, Week 8): 33.90% | PtGA 0-2 (No/Almost Clear/Mild), Freq. ([2]; 80 mg/day, Week 8): 20 | PtGA 3-5 (Mod/Severs/Worse), % of patients ([2]; 80 mg/day, Week 8): 66.1% | PtGA 3-5 (Mod/Severs/Worse), Freq. ([2]; 80 mg/day, Week 8): 39 | PGA 0-3 (No/Almost Clear/Mild/Mod), % of patients ([2]; 80 mg/day, Week 12/EOT): 93.22% | PGA 0-3 (No/Almost Clear/Mild/Mod), Freq. ([2]; 80 mg/day, Week 12/EOT): 55 | PGA 4 (Severe), % of patients ([2]; 80 mg/day, Week 12/EOT): 6.8% and 6.78% | PGA 4 (Severe), Freq. ([2]; 80 mg/day, Week 12/EOT): 4 | PtGA 0-2 (No/Almost Clear/Mild), % of patients ([2]; 80 mg/day, Week 12/EOT): 38.98% | PtGA 0-2 (No/Almost Clear/Mild), Freq. ([2]; 80 mg/day, Week 12/EOT): 23 | PtGA 3-5 (Mod/Severs/Worse), % of patients ([2]; 80 mg/day, Week 12/EOT): 61.0% and 61.02% | PtGA 3-5 (Mod/Severs/Worse), Freq. ([2]; 80 mg/day, Week 12/EOT): 36 | correlation between VB-201 plasma levels and PASI, PGA and PtGA efficacy endpoints ([2]; PGA p=0.04, PtGA p=0.001, FIG. 10): statistically significant dose response | efficacy compared to placebo in subgroups (exploratory analyses) ([2]; baseline PASI 14.3-18.5, age ≦46 years, BSA 16%-24%, psoriasis up to 20 years, no previous immunosuppressants or biologicals, elevated baseline hs-CRP): greater trends for efficacy | time course of the efficacy endpoints ([2]; over 3 months of treatment): continued to improve overtime and had not reached a plateau at 3 months | average reduction of PASI score ([2]; patients in quartile 1 of trough level): about 18% | average reduction of PASI score ([2]; patients in quartile 4 of trough level, p=0.009): about 45% | percent change from baseline in PASI at 12 weeks versus trough level ([2]; sub-population with baseline PASI score of about 14.3 to about 18.5, FIG. 9): significantly dependent on the trough level of VB-201 | PASI 50 response rates and reductions in BSA compared to placebo ([2]; week 12): Trends for favorable efficacy | inflammation surrounding the breast implants (18-FDG uptake) [3]: reduced inflammation surrounding the breast implants | mean VB-201 trough level ([4]; patients in quartile 1): about 0 ng/mL | mean VB-201 trough level ([4]; patients in quartile 4): about 3,640 ng/mL | human monocyte migration towards chemoattractants (human CD 14+ monocytes): decreases human monocyte migration
